Test results: patent US20130302888A1, “CELL CULTURE METHOD AND SYSTEM FOR ESTABLISHING AN IN VITRO MODEL OF THE INTESTINAL BARRIER” (GATTEFOSSE SAS, priority 2011, published 2013)

Legend:
[1] = tested on: Caco-2/HT29-MTX cocultures
HT29-MTX monolayers = conditions: pH 7.4

- Papp, effect of adding HT29-MTX to Caco-2 cells [1]: drastically increases the Papp
- Papp (HT29-MTX monolayers): 2-3 10^−6 cm/s
Substance: Lucifer yellow [LY]
